Measured values taken from patent US20260224723A1, “ANTI-B7H3 ANTIBODY-DRUG CONJUGATE AND USE THEREOF” (Duality Biologics (Suzhou) Co., Ltd., priority 2022, published 2026).

Assay: Pharmacokinetic study, single intravenous infusion in cynomolgus monkeys
Settings: both, cynomolgus monkey, in vivo
Description: 18 cynomolgus monkeys (half female and half male) were weighed one day before administration, stratified based on the weight, and then randomly divided into 3 groups (3 females and 3 males/group): a low dose group (1 mg/kg), a medium dose group (3 mg/kg), and a high dose group (10 mg/kg). […] Blood was collected from the forelimb veins of cynomolgus monkeys in each group, and treated samples of the blood collected at 0 h before and 0.5 […], and 672 h after the administration were used as PK samples. After the blood collection at each time point was completed, serum was obtained by centrifugation for sample analysis.

CC[C@@]1(O)C(=O)OCc2c1cc1n(c2=O)Cc2c-1nc1cc(F)c(C)c3c1c2[C@@H](NC(=O)C[C@H](C)O)CC3 [P-III-30]
AUC0-t (3 mg/kg): 1.07 ng·h/mL
Cmax (3 mg/kg): 0.133 ng/mL
AUC0-t (10 mg/kg): 44.5 ng·h/mL
